According to patent US5776899A, “Polypeptide and anti-HIV agent prepared therefrom” (Seikagaku Corporation, priority 1993, dated 1998):
≈ marks a conversion by molar mass, not a printed value. Entries after “also recorded” stand apart in the source; their conditions may differ. Positions of bridges follow the written chain, without caps; N, C: chain ends. Non-standard residues stand in square brackets, D forms with d. Residues, ends and D or L forms follow the SMILES beside them. *: point of attachment. FITC = O=C1OC2(c3ccc(O)cc3Oc3cc(O)ccc32)c2ccc(NC(=S)*)cc21; Myristoyl = CCCCCCCCCCCCCC(=O)*; dOrn = NCCC[C@@H](N)C(=O)O; GABA = NCCCC(=O)O

Tests used:
[1] = tested on: human immunodeficiency virus (HIV); assay: Antiviral activity against HIV in HIV-infected MT-4 cells (MTT method); assay type: cell-based; conditions: for SI: rough ratio CC50/EC50
Description: (§1) HIV-infected MT-4 cells (2.5×10^4 cells/well, multiplicity of infection (MOI): 0.001) immediately after infection were added together with the test substance with various changes of the concentration to a 96-well microtitre plate. After incubation at 37° C. for 5 days in a CO2 incubator, the number of survivor cells was measured by the MTT method [Pauwels et al.; J. Virol. […] On the other hand, in order to know the cytotoxicity of the test substance on the MT-4 cells, virus-non-infected cells were incubated, likewise as above, together with the test compound with various changes of the concentration. […] Further, the rough ratio of CC50 to EC50, (CC50 /EC50) is expressed as an effective ratio (SI).

MT-4 cells = assay: Cytotoxicity on virus-non-infected MT-4 cells (MTT method); assay type: cell-based
Description: as §1

[2] = Table 5, method of Example 2, virus-non-infected MT-4 cells
[3] = Table 5, method of Example 2, HIV-infected MT-4 cells
[4] = Table 4, HIV-infected MT-4 cells, MOI 0.001, 5 days
[5] = Table 4, virus-non-infected MT-4 cells, 5 days

Row | SMILES | SI (CC50/EC50) ([1]; Table 5) | CC50 (MT-4 cells; [2]) | EC50 [1, 3] | EC50 [1, 4] | SI ([1]; Table 4) | anti-HIV activity compared with reference compound (in words) ([1]; text comment on the anti-HIV results) | CC50 (MT-4 cells; [5]) | cytotoxicity compared with reference compound (in words) (MT-4 cells; text comment on Table 4)
1 | N=C(N)NCCC[C@H](NC(=O)[C@@H]1CSSC[C@H](NC(=O)[C@H](Cc2c[nH]c3ccccc23)NC(=O)[C@H](CCCNC(=N)N)NC(=O)[C@H](CCCNC(=N)N)NC(=S)Nc2ccc3c(c2)C(=O)OC32c3ccc(O)cc3Oc3cc(O)ccc32)C(=O)N[C@@H](Cc2ccc(O)cc2)C(=O)N[C@@H](CCCNC(=N)N)C(=O)N[C@@H](CCCCN)C(=O)N[C@H](CCCCN)C(=O)N2CCC[C@H]2C(=O)N[C@@H](Cc2ccc(O)cc2)C(=O)N[C@@H](CCCNC(=N)N)C(=O)N[C@@H](CCCCN)C(=O)N1)C(N)=O [Polypeptide (19), FTC--Arg--Arg --Trp--Cys--Tyr--Arg--Lys --DLys--Pro --Tyr--Arg--Lys--Cys--Arg--NH2] ({FITC}-RRWCYRK[dK]PYRKCR-NH2; disulfide 4-13) | 39285 | 38.47 µg/mL (≈ 16.1 µM) |  |  |  |  |  | 
2 | N=C(N)NCCC[C@H](NC(=O)[C@@H]1CSSC[C@H](NC(=O)[C@H](Cc2c[nH]c3ccccc23)NC(=O)[C@H](CCCNC(=N)N)NC(=O)[C@@H](N)CCCNC(=N)N)C(=O)N[C@@H](Cc2ccc(O)cc2)C(=O)N[C@@H](CCCNC(=N)N)C(=O)N[C@@H](CCCCN)C(=O)N2CCC[C@H]2C(=O)N[C@H](CCCCN)C(=O)N[C@@H](Cc2ccc(O)cc2)C(=O)N[C@@H](CCCNC(=N)N)C(=O)N[C@@H](CCCCN)C(=O)N1)C(N)=O [Polypeptide (5), Arg--Arg --Trp--Cys--Tyr--Arg--Lys --Pro--DLys --Tyr--Arg--Lys--Cys--Arg--NH2] (H-RRWCYRKP[dK]YRKCR-NH2; disulfide 4-13) | 1321 | 101.20 µg/mL (≈ 50.7 µM) | 0.076 µg/mL (≈ 0.0381 µM) |  |  |  |  | 
3 | N=C(N)NCCC[C@H](NC(=O)[C@@H]1CSSC[C@H](NC(=O)[C@H](Cc2c[nH]c3ccccc23)NC(=O)[C@H](CCCNC(=N)N)NC(=O)[C@@H](N)CCCNC(=N)N)C(=O)N[C@@H](Cc2ccc(O)cc2)C(=O)N[C@@H](CCCNC(=N)N)C(=O)N[C@@H](CCCCN)C(=O)N[C@H](CCCN)C(=O)N2CCC[C@H]2C(=O)N[C@@H](Cc2ccc(O)cc2)C(=O)N[C@@H](CCCNC(=N)N)C(=O)N[C@@H](CCCCN)C(=O)N1)C(N)=O [Polypeptide (6), Arg--Arg --Trp--Cys--Tyr--Arg--Lys --DOrn--Pro --Tyr--Arg--Lys--Cys--Arg--NH2] (H-RRWCYRK[dOrn]PYRKCR-NH2; disulfide 4-13) | 2728 | 55.93 µg/mL (≈ 28.2 µM) |  |  |  |  |  | 
4 | N=C(N)NCCC[C@H](NC(=O)[C@@H]1CSSC[C@H](NC(=O)[C@H](Cc2c[nH]c3ccccc23)NC(=O)[C@H](CCCNC(=N)N)NC(=O)[C@@H](N)CCCNC(=N)N)C(=O)N[C@@H](Cc2ccc(O)cc2)C(=O)N[C@@H](CCCNC(=N)N)C(=O)N[C@@H](CCCCN)C(=O)N[C@H](CCCCN)C(=O)N2CCC[C@H]2C(=O)N[C@@H](Cc2ccc(O)cc2)C(=O)N[C@@H](CCCNC(=N)N)C(=O)N[C@@H](CCCCN)C(=O)N1)C(N)=O [Polypeptide (1), Arg--Arg--Trp--Cys--Tyr--Arg--Lys--DLys--Pro--Tyr--Arg--Lys--Cys--Arg--NH2] (H-RRWCYRK[dK]PYRKCR-NH2; disulfide 4-13) | 3352 | 65.37 µg/mL (≈ 32.7 µM) | 0.0195 µg/mL (≈ 0.00977 µM) | 0.0034 µg/mL (≈ 0.0017 µM) | 14,647 | one-third the concentration of T-22; also recorded: slightly higher | 49.8 µg/mL (≈ 24.9 µM) | the same cytotoxicity as that of T-22; also recorded: extremely low cytotoxicity
5 | CCCCCCCCCCCCCC(=O)N[C@@H](CCCNC(=N)N)C(=O)N[C@@H](CCCNC(=N)N)C(=O)N[C@@H](Cc1c[nH]c2ccccc12)C(=O)N[C@H]1CSSC[C@@H](C(=O)N[C@@H](CCCNC(=N)N)C(N)=O)NC(=O)[C@H](CCCCN)NC(=O)[C@H](CCCNC(=N)N)NC(=O)[C@H](Cc2ccc(O)cc2)NC(=O)[C@@H]2CCCN2C(=O)[C@@H](CCCCN)NC(=O)[C@H](CCCCN)NC(=O)[C@H](CCCNC(=N)N)NC(=O)[C@H](Cc2ccc(O)cc2)NC1=O [Polypeptide (17), Myr--Arg--Arg --Trp--Cys--Tyr--Arg--Lys --DLys--Pro --Tyr--Arg--Lys--Cys--Arg--NH2] (Myristoyl-RRWCYRK[dK]PYRKCR-NH2; disulfide 4-13) | 1838 | 106.60 µg/mL (≈ 48.3 µM) | 0.055 µg/mL (≈ 0.0249 µM) |  |  |  |  | 
6 | N=C(N)NCCC[C@H](NC(=O)[C@@H]1CSSC[C@H](NC(=O)[C@H](Cc2c[nH]c3ccccc23)NC(=O)[C@H](CCCNC(=N)N)NC(=O)[C@@H](N)CCCNC(=N)N)C(=O)N[C@@H](Cc2ccc(O)cc2)C(=O)N[C@@H](CCCNC(=N)N)C(=O)N[C@@H](CCCCN)C(=O)N[C@H](CCCCNC(=O)CN)C(=O)N2CCC[C@H]2C(=O)N[C@@H](Cc2ccc(O)cc2)C(=O)N[C@@H](CCCNC(=N)N)C(=O)N[C@@H](CCCCN)C(=O)N1)C(N)=O (H-RRWCYRK[dK](Gly)PYRKCR-NH2; disulfide 4-13) |  | 44.26 µg/mL (≈ 21.6 µM) | 0.03 µg/mL (≈ 0.0146 µM) |  |  |  |  | 
7 | CC(=O)N[C@@H](CCCNC(=N)N)C(=O)N[C@@H](CCCNC(=N)N)C(=O)N[C@@H](Cc1c[nH]c2ccccc12)C(=O)N[C@H]1CSSC[C@@H](C(=O)N[C@@H](CCCNC(=N)N)C(N)=O)NC(=O)[C@H](CCCCN)NC(=O)[C@H](CCCNC(=N)N)NC(=O)[C@H](Cc2ccc(O)cc2)NC(=O)[C@@H]2CCCN2C(=O)[C@@H](CCCCN)NC(=O)[C@H](CCCCN)NC(=O)[C@H](CCCNC(=N)N)NC(=O)[C@H](Cc2ccc(O)cc2)NC1=O [Polypeptide (14), Ac--Arg--Arg --Trp--Cys--Tyr--Arg--Lys --DLys--Pro --Tyr--Arg--Lys--Cys--Arg--NH2] (Ac-RRWCYRK[dK]PYRKCR-NH2; disulfide 4-13) | 3256 | 78.14 µg/mL (≈ 38.3 µM) | 0.024 µg/mL (≈ 0.0118 µM) |  |  |  |  | 
8 | N=C(N)NCCC[C@H](NC(=O)[C@@H]1CSSC[C@H](NC(=O)[C@H](Cc2c[nH]c3ccccc23)NC(=O)[C@H](CCCNC(=N)N)NC(=O)[C@@H](N)CCCNC(=N)N)C(=O)N[C@@H](Cc2ccc(O)cc2)C(=O)N[C@@H](CCCNC(=N)N)C(=O)N[C@@H](CCCCN)C(=O)N[C@H]2CSSC[C@H](NC(=O)[C@H](Cc3ccc(O)cc3)NC(=O)CNC(=O)[C@H](CCCCN)NC(=O)[C@H](Cc3ccc(O)cc3)NC2=O)C(=O)N[C@@H](Cc2ccc(O)cc2)C(=O)N[C@@H](CCCNC(=N)N)C(=O)N[C@@H](CCCCN)C(=O)N1)C(N)=O [Polypeptide T-22, reference compound] (H-RRWCYRKCYKGYCYRKCR-NH2; disulfide 4-17, 8-13 (inferred); N-terminus assumed) |  | 49.4 µg/mL (≈ 19.9 µM) | 0.017 µg/mL (≈ 0.00684 µM) | 0.0099 µg/mL (≈ 0.00398 µM) | 5,465 |  | 54.1 µg/mL (≈ 21.8 µM) | 
9 | N=C(N)NCCC[C@H](NC(=O)[C@@H]1CSSC[C@H](NC(=O)[C@H](Cc2c[nH]c3ccccc23)NC(=O)[C@H](CCCNC(=N)N)NC(=O)[C@@H](N)CCCNC(=N)N)C(=O)N[C@@H](Cc2ccc(O)cc2)C(=O)N[C@@H](CCCNC(=N)N)C(=O)N[C@@H](CCCCN)C(=O)N[C@H](CCCCNC(=O)CCCN)C(=O)N2CCC[C@H]2C(=O)N[C@@H](Cc2ccc(O)cc2)C(=O)N[C@@H](CCCNC(=N)N)C(=O)N[C@@H](CCCCN)C(=O)N1)C(N)=O (H-RRWCYRK[dK](GABA)PYRKCR-NH2; disulfide 4-13) | 11095 | 138.07 µg/mL (≈ 66.3 µM) | 0.0165 µg/mL (≈ 0.00793 µM) |  |  |  |  | 
10 | N=C(N)NCCC[C@H](NC(=O)[C@@H]1CSSC[C@H](NC(=O)[C@H](Cc2c[nH]c3ccccc23)NC(=O)[C@H](CCCNC(=N)N)NC(=O)[C@@H](N)CCCNC(=N)N)C(=O)N[C@@H](Cc2ccc(O)cc2)C(=O)N[C@@H](CCCNC(=N)N)C(=O)N[C@@H](CCCCN)C(=O)N[C@@H](CCCCN)C(=O)NCC(=O)N[C@@H](Cc2ccc(O)cc2)C(=O)N[C@@H](CCCNC(=N)N)C(=O)N[C@@H](CCCCN)C(=O)N1)C(N)=O [Polypeptide (3), Arg--Arg --Trp--Cys--Tyr--Arg--Lys --Lys--Gly --Tyr--Arg--Lys--Cys--Arg--NH2] (H-RRWCYRKKGYRKCR-NH2; disulfide 4-13) | 3477 | 198.18 µg/mL (≈ 101 µM) | 0.057 µg/mL (≈ 0.0291 µM) |  |  |  |  | 
